target: jack bean urease (Canavalia ensiformis, UniProt P07374); assay: biochemical; assay type: biochemical; conditions: not given
Method: The urease inhibitory activity was measured according to a reported method with slight modifications. The enzyme (5 U/mL; 10 μL) and test compound in buffer (10 μL) were sequentially added to 40 μL of buffer (pH 8.2) containing 100 mM urea, 1 mM EDTA, 0.01 M K2HPO4 and 0.01 M […]. The mixture was pre-incubated for 30 min at 37 °C. The reaction was initiated by the addition of 40 μL of phenol reagent (1%, w/v phenol, 0.005%, w/v sodium nitroprusside) and 40 μL of alkali reagent (0.5%, w/v NaOH, 0.1% active chloride NaOCl) to each well. After 10 min of incubation at 37 °C, the absorbance was measured at 630 nm using a Microplate reader (Bio-Tek ELx 800^TM, Instruments, Inc. USA). All the experiments were carried out with their respective controls in triplicate. Thiourea (0.1 mM well^−1) was used as a positive control.

Sequence of jack bean urease (P07374 whole entry, looked up): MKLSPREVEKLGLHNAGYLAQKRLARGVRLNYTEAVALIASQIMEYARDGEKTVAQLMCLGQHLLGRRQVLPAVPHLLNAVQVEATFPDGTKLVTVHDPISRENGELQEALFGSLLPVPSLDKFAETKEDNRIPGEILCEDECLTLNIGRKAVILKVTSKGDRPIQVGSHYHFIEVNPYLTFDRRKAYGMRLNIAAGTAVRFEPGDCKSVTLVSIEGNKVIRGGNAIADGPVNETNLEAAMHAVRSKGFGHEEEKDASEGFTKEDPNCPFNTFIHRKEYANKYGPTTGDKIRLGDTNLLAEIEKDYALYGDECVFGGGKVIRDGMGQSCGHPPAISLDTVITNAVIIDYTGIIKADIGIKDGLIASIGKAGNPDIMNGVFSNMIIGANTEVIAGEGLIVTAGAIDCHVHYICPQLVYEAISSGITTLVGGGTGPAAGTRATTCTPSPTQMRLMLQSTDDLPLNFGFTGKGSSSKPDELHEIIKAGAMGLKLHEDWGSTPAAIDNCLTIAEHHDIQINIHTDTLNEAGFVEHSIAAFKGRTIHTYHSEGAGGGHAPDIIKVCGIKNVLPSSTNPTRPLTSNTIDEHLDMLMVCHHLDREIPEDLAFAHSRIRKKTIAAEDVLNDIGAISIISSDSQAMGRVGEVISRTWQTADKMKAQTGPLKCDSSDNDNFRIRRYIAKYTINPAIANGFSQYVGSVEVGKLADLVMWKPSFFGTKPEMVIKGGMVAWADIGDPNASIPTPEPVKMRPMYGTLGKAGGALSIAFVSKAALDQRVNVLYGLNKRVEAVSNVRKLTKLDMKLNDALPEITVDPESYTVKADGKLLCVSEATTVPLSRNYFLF

Compound	IC50
S=C1NCCCN1 [II, 1,3-diazinane-2-thione]	118 ± 13 µM
S=C1NCCN1 [I, imidazolidine-2-thione]	232 ± 27 µM

same assay, conditions: enzyme 5 U/mL, 100 mM urea, buffer pH 8.2, 30 min pre-incubation at 37 °C, absorbance at 630 nm, triplicate; read-out: Inhibitory activity IC50 against jack bean urease

Compound	IC50
NC(N)=S [Thiourea]	22.1 ± 1.4 µM
[Dichlorido(imidazolidine-2-thione)(η^6-biphenyl)ruthenium(II)] [Compound 10]	> 600 µM
[Chlorido(η^6-p-cymene)(imidazolidine-2-thione)(triphenylphosphine)ruthenium(II)] hexafluoro-phosphate [Compound 11]	> 600 µM
[Dichlorido(imidazolidine-2-thione)(η^6-toluene)ruthenium(II)] [Compound 9]	> 600 µM
[Dichlorido(1,3-diazinane-2-thione)(η^6-p-cymene)ruthenium(II)] [Compound 7]	> 600 µM
[Chlorido(η^6-p-cymene)(1H-benzo[d]imidazole-2(3H)-thione)(triphenylphosphine)ruthenium(II)] hexafluorophosphate [Compound 13]	> 600 µM
[Chlorido(η^6-p-cymene)(1,3-diazinane-2-thione)(triphenylphosphine)ruthenium(II)] hexafluoro-phosphate [Compound 12]	> 600 µM
[Dichlorido(1H-benzo[d]imidazole-2(3H)-thione)(η^6-p-cymene)ruthenium(II)] [Compound 8]	> 600 µM

same assay, conditions: jack bean urease; compared to thiourea as positive control

Compound	urease inhibitory activity (in words)
S=C1NCCCN1 [II, 1,3-diazinane-2-thione]	most active in the tested series

same assay, conditions: jack bean urease; thiourea vs II

Compound	fold more active than compound II (IC50 ratio)
NC(N)=S [Thiourea]	more than 5 times

— paper PMC6271941, “Ruthenium^II(η^6-arene) Complexes of Thiourea Derivatives: Synthesis, Characterization and Urease Inhibition” (Molecules, 2014)
